# Results from patent publication US20200407717A1, “METHODS OF MODULATING ANTISENSE ACTIVITY” (Ionis Pharmaceuticals, Inc., priority 2018, published 2020).
# e = 2'-O-(2-methoxyethyl) (MOE); d = 2'-deoxy (DNA)
# Test system: Drosha mRNA
# Assay: Antisense activity by RT-qPCR, Drosha, A431 cells
# Assay type: cell-based, Human
# Procedure: A431 cells were grown at 10,000 cells per well and pre-treated with a variety of growth factors to determine if the addition of exogenous growth factors affects antisense activity or uptake of modified antisense oligonucleotides in a cell. The growth factors used were EGF, insulin growth factor (IGF), transforming growth factor (TGF), […] (VEGF), hepatocyte growth factor (HGF), platelet growth factor (PGF) and fibroblasts growth factor (FGF). To test antisense activity, cells were treated for 4 hours with a growth factor or vehicle alone, and then treated with compound no. 25690 (complementary to Drosha), compound no. 395254 (complementary to Malat1), or vehicle alone. RNA was isolated from the cells and Drosha or Malat1 RNA levels were measured by RT-qPCR. Human primer probe set 13816 (forward sequence […], designated herein as SEQ ID NO: 3; reverse sequence […], designated herein as SEQ ID NO: 4; probe sequence […], designated herein as SEQ ID NO: 5) was used to measure Drosha mRNA levels and primer probe set RTS2736 (forward sequence […], designated herein as SEQ ID NO: 6; reverse sequence […], designated herein as SEQ ID NO: 7; probe sequence TGCCACATCGCCACCCCGT, designated herein as SEQ ID NO: 8) was used to measure Malat1 RNA levels. Drosha and Malat1 RNA levels were normalized to total RNA content, as measured by RIBOGREEN®. Results are presented in the tables below as normalized RNA levels, relative to untreated control cells.
# A431 cells were treated with EGF or TGF at 200 ng/mL in the presence or absence of 1 μM of the EGFR tyrosine kinase inhibitor PD174265. The cells were then treated with compound no. 25690 or compound no. 395254 as in Example 8. Total RNA was isolated and analyzed by RT-qPCR, as in Example 8.
# Following siRNA treatment, cells were treated with compound no. 25690 or compound no. 395254 in the presence or absence of EGF. 16 hours after treatment with a PS-ASO with or without EGF, cells were harvested, and RNA levels were analyzed via RT-qPCR as in Example 8.
sequence,measurement,setting,value
"AGGAAGGAAGCTGGCGATCT (sugars from the 5' end e5 d10 e5, all phosphorothioate, methylation of C not given here) [compound 25690]",Drosha mRNA (% Control),"50000 nM, Control, Table 20",28.2 % Control
same,Drosha mRNA (% Control),"50000 nM, EGF",35.1 % Control
same,Drosha mRNA (% Control),"50000 nM, EGF+PD174265",45.3 % Control
same,Drosha mRNA (% Control),"50000 nM, EGFR siRNA-1",25.7 % Control
same,Drosha mRNA (% Control),"50000 nM, EGFR siRNA-2",31.2 % Control
same,Drosha mRNA (% Control),"50000 nM, EGFR siRNA-2 + EGF",31.3 % Control
same,Drosha mRNA (% Control),"50000 nM, EGFR siRNA-2, Table 26",29.3 % Control
same,Drosha mRNA (% Control),"50000 nM, TGF",17.2 % Control
same,Drosha mRNA (% Control),"50000 nM, TGF+PD174265",35.2 % Control
same,Drosha mRNA (% Control),"100000 nM, Control",39.2 % Control
same,Drosha mRNA (% Control),"100000 nM, Control Luciferase siRNA",19.7 % Control
same,Drosha mRNA (% Control),"100000 nM, Control Luciferase siRNA, Table 26",32.1 % Control
same,Drosha mRNA (% Control),"100000 nM, Control luciferase + EGF",21.0 % Control
same,Drosha mRNA (% Control),"100000 nM, Control, Table 20",25.2 % Control
same,Drosha mRNA (% Control),"100000 nM, EGF",32.9 % Control
same,Drosha mRNA (% Control),"100000 nM, EGF+PD174265",35.2 % Control
same,Drosha mRNA (% Control),"100000 nM, EGFR siRNA-1",24.1 % Control
same,Drosha mRNA (% Control),"100000 nM, EGFR siRNA-2",28.4 % Control
same,Drosha mRNA (% Control),"100000 nM, EGFR siRNA-2 + EGF",30.4 % Control
same,Drosha mRNA (% Control),"100000 nM, EGFR siRNA-2, Table 26",31.2 % Control
same,Drosha mRNA (% Control),"100000 nM, TGF",15.2 % Control
same,Drosha mRNA (% Control),"100000 nM, TGF+PD174265",30.2 % Control
same,Drosha mRNA (% Control),"200000 nM, Control",30.2 % Control
same,Drosha mRNA (% Control),"200000 nM, Control Luciferase siRNA",14.9 % Control
same,Drosha mRNA (% Control),"200000 nM, Control Luciferase siRNA, Table 26",25.2 % Control
same,Drosha mRNA (% Control),"200000 nM, Control luciferase + EGF",21.4 % Control
same,Drosha mRNA (% Control),"200000 nM, Control, Table 20",21.2 % Control
same,Drosha mRNA (% Control),"200000 nM, EGF",25.1 % Control
same,Drosha mRNA (% Control),"200000 nM, EGF+PD174265",33.2 % Control
same,Drosha mRNA (% Control),"200000 nM, EGFR siRNA-1",18.5 % Control
same,Drosha mRNA (% Control),"200000 nM, EGFR siRNA-2",20.8 % Control
same,Drosha mRNA (% Control),"200000 nM, EGFR siRNA-2 + EGF",25.1 % Control
same,Drosha mRNA (% Control),"200000 nM, EGFR siRNA-2, Table 26",26.1 % Control
same,Drosha mRNA (% Control),"200000 nM, TGF",15.2 % Control
same,Drosha mRNA (% Control),"200000 nM, TGF+PD174265",27.2 % Control
same,IC50,"Control (no growth factor), Table 15",1470 ± 50 nM
same,IC50,"Control Luciferase siRNA, Table 24",1310 ± 40 nM
same,IC50,"Control Luciferase siRNA, Table 26",1500 ± 50 nM
same,IC50,"Control luciferase + EGF, Table 26",630 ± 40 nM
same,IC50,"Control, Table 18",1620 ± 90 nM
same,IC50,"Control, Table 20",1390 ± 60 nM
same,IC50,"EGF 200 ng/mL + 1 μM PD174265, Table 18",1500 ± 50 nM
same,IC50,"EGF 200 ng/mL, Table 18",580 ± 70 nM
same,IC50,"EGF pre-treatment 4 hours, Table 15",600 ± 80 nM
same,IC50,"EGFR siRNA-1, Table 24",2110 ± 100 nM
same,IC50,"EGFR siRNA-2 + EGF, Table 26",2330 ± 110 nM
same,IC50,"EGFR siRNA-2, Table 24",2790 ± 70 nM
same,IC50,"EGFR siRNA-2, Table 26",2730 ± 100 nM
same,IC50,"TGF 200 ng/mL + 1 μM PD174265, Table 20",1490 ± 40 nM
same,IC50,"TGF 200 ng/mL, Table 20",500 ± 40 nM
same,IC50,"TGF pre-treatment 4 hours, Table 15",590 ± 70 nM
same,"half maximal inhibitory concentration, Drosha","cells treated with IGF, FGF, HGF, VEGF or PGF relative to PS-ASO alone (data not shown)",unchanged
